In patent US20220000110A1, “COMPOSITIONS COMPRISING PYRIDINE CARBOXYLATE HERBICIDES AND CELLULOSE BIOSYNTHESIS INHIBITOR HERBICIDES” (priority 2018, published 2022):

How the values were obtained:
Assay in all cases: Greenhouse postemergence herbicidal effect, visual injury after 20-22 d
Assay type in all cases: in vivo
[1] = system: Brassica napus (spring rape); settings: BRSNN
From the text: (§1) Greenhouse Trial Methodology—Evaluation of Postemergence Herbicidal Effect
(§2) Seeds of the desired test plant species were planted in a 90:10% v/v (volume/volume) mixture of PRO-MIX® BX (Premier Tech Horticulture, Quakertown, Pa., USA) and PROFILE® GREENS GRADE™ (Profile Products LLC, Buffalo Grove, Ill., USA) planting mixture, which typically has a pH of 5.2 to 6.2 and an organic matter content of at least 50 percent, in plastic pots with a surface area of 103.2 square centimeters (cm^2). In some aspects, to help ensure good germination and healthy plants, a fungicide treatment and/or other chemical or physical treatment was applied. The plants were grown for 7-36 days (d) in a greenhouse with an approximate 14-hour (h) photoperiod which was maintained at about 23° C. during the day and 22° C. during the night. Nutrients and water were added on a regular basis and supplemental lighting was provided with overhead metal halide 1000-Watt lamps as necessary. The plants were employed for testing when they reached the second or third true leaf stage.
(§3) Emulsifiable concentrates of each of each pyridine carboxylate herbicide (Compound A or Compound B) were prepared at 100 grams acid equivalent per liter (g ae/L). The emulsifiable concentrates also included a safener, at 120 grams active ingredient per liter (g ai/L). An aliquot of each emulsifiable concentrate was placed in a 25 mL glass vial and diluted with an aqueous mixture of 1.25% (v/v) ACTIROB® B esterified rapeseed oil (Bayer Crop Science, Research Triangle Park, N.C., USA) or MSO® Concentrate with LECI-TECH® methylated soybean oil (Loveland Products, Loveland, Colo., USA) to obtain concentrated stock solutions at the highest application rate for each herbicide, based upon a 12 milliliter (mL) application volume at a rate of 187 liters per hectare (L/ha). The concentrated stock solutions were further diluted with an aqueous mixture of 1.25% v/v ACTIROB® B or MSO® Concentrate with LECI-TECH® to obtain stock solutions at reduced application rates for each herbicide. Spray solutions of the herbicide combinations (Compound A or Compound B plus the CBI herbicide) were prepared by adding weighed amounts or aliquots of the CBI herbicide to the stock solutions of Compound A or Compound B to form 12-mL spray solutions in two-way combinations.
(§4) The spray solutions were applied to the plant material with an overhead Mandel track sprayer equipped with 8002E nozzles calibrated to deliver 187 L/ha over an application area of 0.503 square meters (m^2) at a spray height of 18 inches (43 centimeters (cm)) above the average plant canopy. Control plants were sprayed in the same manner with the solvent blank. All pyridine carboxylate herbicide (component a) application rates are given as “g ae/ha” and all CBI herbicide (component b) application rates are given as “g ai/ha.”
(§5) The treated plants and control plants were placed in a greenhouse as described above and watered by sub-irrigation to prevent wash-off of the test compounds. After 20-22 d, the condition of the test plants as compared with that of the control plants was determined visually and scored on a scale of 0 to 100 percent where 0 corresponds to no injury and 100 corresponds to complete kill.

[2] = system: Cirsium arvense (Canadian thistle); settings: CIRAR
From the text: as §1, §2, §3, §4, §5

[3] = system: Digitaria sanguinalis (large crabgrass); settings: DIGSA
From the text: as §1, §2, §3, §4, §5

[4] = system: Euphorbia heterophylla (poinsettia); settings: Table 1, EPHHL
From the text: as §1, §2, §3, §4, §5

Glycine max (soybean) = settings: Table 1, GLXMA
From the text: as §1, §2, §3, §4, §5

[5] = system: Ipomoea hederacea (ivyleaf morningglory); settings: IPOHE
From the text: as §1, §2, §3, §4, §5

Kochia scoparia (kochia) = settings: KCHSC
From the text: as §1, §2, §3, §4, §5

[6] = system: Lolium multiflorum (Italian rye grass); settings: Table 2, LOLMU
From the text: as §1, §2, §3, §4, §5

[7] = system: Matricaria chamomilla (wild chamomile); settings: MATCH
From the text: as §1, §2, §3, §4, §5

[8] = system: Oryza sativa (common rice); settings: Table 1, ORYSA
From the text: as §1, §2, §3, §4, §5

[9] = system: Polygonum convolvulus (wild buckwheat); settings: POLCO
From the text: as §1, §2, §3, §4, §5

[10] = system: Sorghum vulgare (grain sorghum); settings: Table 1, SORVU
From the text: as §1, §2, §3, §4, §5

[11] = system: Viola tricolor (wild pansy); settings: VIOTR
From the text: as §1, §2, §3, §4, §5

With N#CCOC(=O)c1nc(-c2ccc3cc[nH]c3c2F)c(F)c(N)c1Cl [Compound A, cyanomethyl 4-amino-3-chloro-5-fluoro-6-(7-fluoro-1H-indol-6-yl)pyridine-2-carboxylate] the “Obs % visual injury” value ([1]; Table 1, Compound A 7.5 g/ha) was 65%, the “Obs % visual injury” value ([1]; Table 1, Compound A 10 g/ha) was 65% and the “Obs % visual injury” value ([1]; Table 2, Compound A 7.5 g/ha) was 73%. For the same compound, the “Obs % visual injury” value ([1]; Table 2, Compound A 10 g/ha) was 83%, the “Obs % visual injury” value ([2]; Table 1, Compound A 7.5 g/ha) was 40% and the “Obs % visual injury” value ([2]; Table 1, Compound A 10 g/ha) was 60%. For the same compound, the “Obs % visual injury” value ([2]; Table 2, Compound A 7.5 g/ha) was 23%, the “Obs % visual injury” value ([2]; Table 2, Compound A 10 g/ha) was 20% and the “Obs % visual injury” value ([3]; Table 1, Compound A 7.5 g/ha) was 35%. The “Obs % visual injury” value ([3]; Table 1, Compound A 10 g/ha) was 38%, the “Obs % visual injury” value ([3]; Table 2, Compound A 7.5 g/ha) was 45% and the “Obs % visual injury” value ([3]; Table 2, Compound A 10 g/ha) was 25%. The “Obs % visual injury” value ([4]; Compound A 7.5 g/ha) was 97%, the “Obs % visual injury” value ([4]; Compound A 10 g/ha) was 97% and the “Obs % visual injury” value (Glycine max (soybean); Compound A 7.5 g/ha) was 80%. For the same compound, the “Obs % visual injury” value (Glycine max (soybean); Compound A 10 g/ha) was 90%, the “Obs % visual injury” value ([5]; Table 1, Compound A 7.5 g/ha) was 20% and the “Obs % visual injury” value ([5]; Table 1, Compound A 10 g/ha) was 25%. The “Obs % visual injury” value ([5]; Table 2, Compound A 7.5 g/ha) was 3%, the “Obs % visual injury” value ([5]; Table 2, Compound A 10 g/ha) was 8% and the “Obs % visual injury” value (Kochia scoparia (kochia); Table 1, Compound A 7.5 g/ha) was 75%. The “Obs % visual injury” value (Kochia scoparia (kochia); Table 1, Compound A 10 g/ha) was 73%, the “Obs % visual injury” value (Kochia scoparia (kochia); Table 2, Compound A 7.5 g/ha) was 60% and the “Obs % visual injury” value (Kochia scoparia (kochia); Table 2, Compound A 10 g/ha) was 65%. For the same compound, the “Obs % visual injury” value (Kochia scoparia (kochia); Table 3, Compound A 7.5 g/ha) was 70%, the “Obs % visual injury” value (Kochia scoparia (kochia); Table 3, Compound A 10 g/ha) was 70% and the “Obs % visual injury” value (Kochia scoparia (kochia); Table 3, Compound A 15 g/ha) was 70%. The “Obs % visual injury” value (Kochia scoparia (kochia); Table 4, Compound A 7.5 g/ha) was 70%, the “Obs % visual injury” value (Kochia scoparia (kochia); Table 4, Compound A 10 g/ha) was 70% and the “Obs % visual injury” value (Kochia scoparia (kochia); Table 4, Compound A 15 g/ha) was 70%. The “Obs % visual injury” value ([6]; Compound A 7.5 g/ha) was 0%, the “Obs % visual injury” value ([6]; Compound A 10 g/ha) was 0% and the “Obs % visual injury” value ([7]; Table 3, Compound A 7.5 g/ha) was 8%. For the same compound, the “Obs % visual injury” value ([7]; Table 3, Compound A 10 g/ha) was 15%, the “Obs % visual injury” value ([7]; Table 3, Compound A 15 g/ha) was 10% and the “Obs % visual injury” value ([7]; Table 4, Compound A 7.5 g/ha) was 8%. For the same compound, the “Obs % visual injury” value ([7]; Table 4, Compound A 10 g/ha) was 15%, the “Obs % visual injury” value ([7]; Table 4, Compound A 15 g/ha) was 10% and the “Obs % visual injury” value ([8]; Compound A 7.5 g/ha) was 3%. For the same compound, the “Obs % visual injury” value ([8]; Compound A 10 g/ha) was 8%, the “Obs % visual injury” value ([9]; Table 1, Compound A 7.5 g/ha) was 83% and the “Obs % visual injury” value ([9]; Table 1, Compound A 10 g/ha) was 93%. The “Obs % visual injury” value ([9]; Table 2, Compound A 7.5 g/ha) was 75%, the “Obs % visual injury” value ([9]; Table 2, Compound A 10 g/ha) was 70% and the “Obs % visual injury” value ([9]; Table 3, Compound A 7.5 g/ha) was 63%. For the same compound, the “Obs % visual injury” value ([9]; Table 3, Compound A 10 g/ha) was 60%, the “Obs % visual injury” value ([9]; Table 3, Compound A 15 g/ha) was 63% and the “Obs % visual injury” value ([9]; Table 4, Compound A 7.5 g/ha) was 63%. For the same compound, the “Obs % visual injury” value ([9]; Table 4, Compound A 10 g/ha) was 60%, the “Obs % visual injury” value ([9]; Table 4, Compound A 15 g/ha) was 63% and the “Obs % visual injury” value ([10]; Compound A 7.5 g/ha) was 0%. The “Obs % visual injury” value ([10]; Compound A 10 g/ha) was 0%, the “Obs % visual injury” value ([11]; Table 1, Compound A 7.5 g/ha) was 38% and the “Obs % visual injury” value ([11]; Table 1, Compound A 10 g/ha) was 15%. The “Obs % visual injury” value ([11]; Table 2, Compound A 7.5 g/ha) was 10% and the “Obs % visual injury” value ([11]; Table 2, Compound A 10 g/ha) was 18%.
